According to patent US20260256751A1, “COMBINATION OF BETA-2-ADRENERGIC RECEPTOR AGONISTS AND GLP-1 RECEPTOR AGONISTS FOR USE IN TREATING HYPERGLYCAEMIA” (ATROGI AB, priority 2023, published 2026):

Key:
[1] = system: differentiated L6-myotubes; test: Glucose uptake screen (Biological example 1 of WO 2019/053427); assay type: cell-based; settings: compound at 10 μM, activity relative to isoproterenol at 10 μM, read-out: Biological example 1 of WO 2019/053427 (GU)
In short: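 Uptake was read out as ^3H-2-deoxyglucose (50 nM, 10 min) radioactivity in NaOH lysates. Beforehand, overnight-starved, differentiated L6 myotubes received compound at 1×10^−5 M with ICI-118551 present for 1 h 40 min, followed by fresh agonist for a further 20 min in glucose-free medium.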

[2] = system: differentiated L6-myotubes; test: cAMP production relative to isoprenaline (Biological example 2 of WO 2019/053427); assay type: cell-based; settings: 0.25 h, compound at 10 μM, activity relative to isoproterenol at 10 μM
In short: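 Values are cAMP levels relative to isoprenaline at equal concentration (final 1×10^−5 M for both). Stimulation lasted 15 min in differentiated L6 myotubes, using HBSS buffer (pH 7.4) containing 1 mM IBMX, 5 mM HEPES and 1% BSA.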

SMILES	Emax at 10 µM [1]	Emax at 10 µM [2]
CO[C@H]1CC[C@@H](CCC(C)(C)NC[C@H](O)c2cccc(F)c2)CC1 [Compound 264, (R)-2-{1,1-dimethyl-3-[(1s,R)-4-methoxycyclohexyl]propyl-amino}-1-(m-fluorophenyl)-1-ethanol]	> 75%	25 to 50%
CCC[C@@H]1CCC[C@@H]([C@H](O)c2cccc(O)c2)N1 [Compound 136, (R)-[(2S,6R)-6-propyl-2-piperidyl](m-hydroxyphenyl)methanol]	> 75%	< 25%
CC(=O)N[C@H]1CC[C@@H](C[C@@H]2CC[C@H]([C@@H](O)c3cccc(F)c3)N2)CC1 [Compound 483, N-[(1R,4s)-4-({(2S,5R)-5-[(S)-(m-fluorophenyl)hydroxymethyl]-2-pyrrolidinyl}methyl)cyclohexyl]acetamide]	< 25%	< 25%
CNS(=O)(=O)[C@H]1CC[C@H](CC(C)(C)NC[C@H](O)c2cccc(F)c2)CC1 [Compound 476, (R)-2-{1,1-dimethyl-2-[(1r,4R)-4-(methylaminosulfonyl)cyclohexyl]ethylamino}-1-(m-fluorophenyl)-1-ethanol]	> 75%	25 to 50%
CC1(C)CC[C@H]([C@@H](O)c2ccc(F)cc2)N1 [Compound 172, (S)-[(R)-5,5-dimethyl-2-pyrrolidinyl](p-fluorophenyl)methanol]	< 25%	< 25%
Oc1ccc(C(O)CNCCC2CC2)cc1 (centres unmarked) [Compound 24, p-[2-(2-cyclopropylethylamino)-1-hydroxyethyl]phenol]	50 to 75%	< 25%
CS(=O)(=O)Nc1ccc(CC23CCC([C@@H](O)c4cccc(F)c4)(CC2)N3)cc1 [Compound 474, (S)-(m-fluorophenyl)(4-{[p-(mesylamino)phenyl]methyl}-7-azabicyclo[2.2.1]hept-1-yl)methanol]	50 to 75%	< 25%
CS(=O)(=O)N(Cc1ccccc1)c1ccc(CC23CCC([C@H](O)c4cccc(F)c4)(CC2)N3)cc1 [Compound 473, (R)-[4-({p-[(benzyl)-N-mesylamino]phenyl}methyl)-7-azabicyclo[2.2.1]hept-1-yl](m-fluorophenyl)methanol]	25 to 50%	< 25%
CC1(C)C[C@H]([C@@H](O)c2cccc(F)c2)N1 [Compound 201, (S)-[(R)-4,4-dimethyl-2-azetidinyl](m-fluorophenyl)methanol]	< 25%	< 25%
CC(=O)N[C@H]1CC[C@H](CNC[C@H](O)c2cncc(F)c2)CC1 [Compound 309, N-[(1R,4r)-4-{[(R)-2-(5-fluoro-3-pyridyl)-2-hydroxyethylamino]methyl}cyclohexyl]acetamide]	50 to 75%	< 25%
CC(C)(C[C@H]1CC[C@@H](N)CC1)NC[C@H](O)c1cccc(C#N)n1 [Compound 418, 6-[(S)-2-{1,1-dimethyl-2-[(1s,4R)-4-aminocyclohexyl]ethylamino}-1-hydroxyethyl]-2-pyridinecarbonitrile]	50 to 75%	< 25%
CCCS(=O)(=O)N[C@H]1CC[C@@H](CC(C)(C)NC[C@H](O)c2cncc(F)c2)CC1 [Compound 523, (R)-2-{1,1-dimethyl-2-[(1s,4S)-4-(propylsulfonylamin)cyclohexyl]ethylamino}-1-(5-fluoro-3-pyridyl)-1-ethanol]	50 to 75%	< 25%
COc1ccc(C[C@@H]2CC[C@H]([C@@H](O)c3cccc(F)c3)N2)cc1 [Compound 372, (S)-{(2R,5S)-5-[(p-methoxyphenyl)methyl]-2-pyrrolidinyl}(m-fluorophenyl)methanol]	> 75%	< 25%
CC1(C)CC[C@@H]([C@H](O)c2cccc(F)c2)N1 [Compound 144, (R)-[(S)-5,5-dimethyl-2-pyrrolidinyl](m-fluorophenyl)methanol]	< 25%	< 25%
CC1(C)CCC[C@H]([C@H](O)c2cccc(Cl)c2)N1 [Compound 165, (R)-[(R)-6,6-dimethyl-2-piperidyl](m-chlorophenyl)methanol]	25 to 50%	< 25%
CCCC(C)NCC(O)c1cc(Cl)c(O)c(Cl)c1 (centres unmarked) [Compound 25, 1-(3,5-dichloro-4-hydroxyphenyl)-2-(1-methylbutylamino)-1-ethanol]	< 25%	< 25%
CC(C)(C[C@H]1CC[C@H](NS(=O)(=O)C2CC2)CC1)NC[C@H](O)c1cccc(F)c1 [Compound 496, (R)-2-{1,1-dimethyl-2-[(1r,4R)-4-(cyclopropylsulfonylamino)cyclohexyl]ethylamino}-1-(m-fluorophenyl)-1-ethanol]	50 to 75%	< 25%

SMILES	Emax at 10 µM [1]	Emax at 10 µM [2]
CCC[C@H]1CCC[C@H]([C@H](O)c2cccc(F)c2)N1 [Compound 69, (R)-[(2R,6S)-6-propyl-2-piperidyl](m-fluorophenyl)methanol]	50 to 75%	< 25%
COc1ccc(C[C@@H]2CC[C@H]([C@H](O)c3cncc(F)c3)N2)cc1 [Compound 378, (R)-{(2R,5S)-5-[(p-methoxyphenyl)methyl]-2-pyrrolidinyl}(5-fluoro-3-pyridyl)methanol]	> 75%	< 25%
CS(=O)(=O)N(Cc1ccccc1)[C@H]1CC[C@H](C[C@@H]2CC[C@H]([C@H](O)c3cccc(F)c3)N2)CC1 [Compound 502, (R)-[(2R,5S)-5-({(1r,4S)-4-[(benzyl)-N-mesylamino]cyclohexyl}methyl)-2-pyrrolidinyl](m-fluorophenyl)methanol]	< 25%	< 25%
CC(C)(C[C@H]1CC[C@H](C(=O)O)CC1)NC[C@H](O)c1cncc(F)c1 [Compound 356, (1R,4r)-4-{2-[(R)-2-(5-fluoro-3-pyridyl)-2-hydroxyethylamino]-2-methylpropyl}cyclohexanecarboxylic acid]	< 25%	< 25%
CCC[C@@H]1CCC[C@H]([C@@H](O)c2ccccc2F)N1 [Compound 107, (S)-[(2R,6R)-6-propyl-2-piperidyl](o-fluorophenyl)methanol]	25 to 50%	< 25%
CO[C@H]1CC[C@H](CNC[C@H](O)c2cncc(F)c2)CC1 [Compound 229, (R)-1-(5-fluoro-3-pyridyl)-2-({[(1r,4R)-4-methoxycyclohexyl]meth-yl}amino)-1-ethanol]	50 to 75%	< 25%
CS(=O)(=O)N(Cc1ccccc1)CC12CCC([C@H](O)c3cccc(F)c3)(CC1)N2 [Compound 537, (R)-(4-{[(benzyl)-N-mesylamino]methyl}-7-azabicyclo[2.2.1]hept-1-yl)(m-fluorophenyl)methanol]	50 to 75%	25 to 50%
CCC[C@@H]1CCC[C@H]([C@H](O)c2ccccc2F)N1 [Compound 97, (R)-[(2R,6R)-6-propyl-2-piperidyl](o-fluorophenyl)methanol]	50 to 75%	< 25%
CO[C@H]1CC[C@H](C[C@]2(C)CC[C@H]([C@H](O)c3cccc(F)c3)N2)CC1 [Compound 364, (R)-[(2R,5S)-5-methyl-5-{[(1r,4S)-4-methoxycyclohexyl]methyl}-2-pyrrolidinyl](m-fluorophenyl)methanol]	> 75%	50 to 75%
CC12CCC([C@@H](O)c3cccc(Cl)c3)(CC1)N2 [Compound 196, (S)-(m-chlorophenyl)(4-methyl-7-azabicyclo[2.2.1]hept-1-yl)methanol]	25 to 50%	< 25%
CC(C)(NC[C@H](O)c1cccc(F)c1)[C@H]1CC[C@H](N)CC1 [Compound 381, (R)-1-(m-fluorophenyl)-2-{1-methyl-1-[(1r,4R)-4-aminocyclohexyl]ethylamino}-1-ethanol]	50 to 75%	< 25%
CC1(C)CC[C@@H]([C@@H](O)c2cccc(F)c2)N1 [Compound 145, (S)-[(S)-5,5-dimethyl-2-pyrrolidinyl](m-fluorophenyl)methanol]	25 to 50%	< 25%
CC1(C)C[C@H]([C@H](O)c2cccc(F)c2)N1 [Compound 198, (R)-[(R)-4,4-dimethyl-2-azetidinyl](m-fluorophenyl)methanol]	> 75%	25 to 50%
CCC[C@@H]1CC[C@H]([C@H](O)c2cccc(F)c2)N1 [Compound 58, (R)-[(2R,5R)-5-propyl-2-pyrrolidinyl](m-fluorophenyl)methanol]	> 75%	25 to 50%
CS(=O)(=O)N(Cc1ccccc1)[C@H]1CC[C@@H](C[C@@H]2CC[C@H]([C@H](O)c3cccc(F)c3)N2)CC1 [Compound 508, (R)-[(2R,5S)-5-({(1s,4R)-4-[(benzyl)-N-mesylamino]cyclohexyl}methyl)-2-pyrrolidinyl](m-fluorophenyl)methanol]	< 25%	< 25%
CC1(C)CCC[C@@H]([C@@H](O)c2cccc(F)c2)N1 [Compound 191, (S)-[(S)-6,6-dimethyl-2-piperidyl](m-fluorophenyl)methanol]	25 to 50%	< 25%
O[C@H](c1cccc(F)c1)[C@H]1CC[C@H](Cc2ccc(Cl)cc2)N1 [Compound 393, (R)-{(2R,5R)-5-[(p-chlorophenyl)methyl]-2-pyrrolidinyl}(m-fluorophenyl)methanol]	> 75%	< 25%
